In brackets after ≈: the same amount, converted by molar mass.
Key:
[1] = tested on: E. faecium OC3312; test: NCCLS broth microdilution MIC, E. faecium OC3312; format: cell-based; details: Enterococcus faecium, cation adjusted Mueller-Hinton broth, 35° C., 16-20 hours
Experimental: (§1) Minimal inhibitory concentration (MIC) has been an indicator of in vitro antibacterial activity widely used in the art. The in vitro antimicrobial activity of the compounds was determined by the microdilution broth method following the test method from the National Committee for Laboratory Standards (NCCLS). This method is described in the NCCLS Document M7-A4, Vol.17, No.2, "Methods for Dilution Antimicrobial Susceptibility Test for Bacteria that Grow Aerobically-Fourth Edition", which is incorporated herein by reference.
(§2) In this method two-fold serial dilutions of drug in cation adjusted Mueller-Hinton broth are added to wells in microdilution trays. The test organisms are prepared by adjusting the turbidity of actively growing broth cultures so that the final concentration of test organism after it is added to the wells is approximately 5×10^4 CFU/well.
(§3) Following inoculation of the microdilution trays, the trays are incubated at 35° C. for 16-20 hours and then read. […] The amount of growth in the wells containing the test compound is compared with the amount of growth in the growth-control wells (no test compound) used in each tray. As set forth in Table 1, compounds of the present invention were tested against a variety of Gram positive and Gram negative pathogenic bacteria resulting in a range of activities, from 1 to ≥128 μg/mL depending on the organism tested.

[2] = tested on: S. aureus OC4172; test: NCCLS broth microdilution MIC, S. aureus OC4172; format: cell-based; details: Staphylococcus aureus, cation adjusted Mueller-Hinton broth, 35° C., 16-20 hours
Experimental: as §1, §2, §3

[3] = tested on: MRSA OC2878; test: NCCLS broth microdilution MIC, MRSA OC2878; format: cell-based, methicillin-resistant Staphylococcus aureus; details: Staphylococcus aureus, cation adjusted Mueller-Hinton broth, 35° C., 16-20 hours
Experimental: as §1, §2, §3

| Structure (SMILES) | MIC [1] [µg/mL] | MIC [2] [µg/mL] | MIC [3] [µg/mL] |
| --- | --- | --- | --- |
| CC(=N)NC[C@H]1CN(c2ccc(N3CCOCC3)c(F)c2)C(=O)O1 [Cmpd 6] | > 128 | > 128 | 128 (≈ 381 µM) |
| CC(=NC[C@H]1CN(c2ccc(N3CCOCC3)c(F)c2)C(=O)O1)NC#N [Cmpd 2, N-Cyano-N'-[[(5S)-3-[3-fluoro-4-(4-morpholinyl)phenyl]-2-oxo-5-oxazolidinyl]methyl]ethanimidamide] | 2 (≈ 5.53 µM) | 2 (≈ 5.53 µM) | 1 (≈ 2.77 µM) |
| CSC(=NC#N)NCC1CN(c2ccc(N3CCOCC3)c(F)c2)C(=O)O1 (stereo in doubt) [Cmpd 3, N-Cyano-N'-[[(5S)-3-[3-fluoro-4-(4-morpholinyl)phenyl]-2-oxo-5-oxazolidinyl]methyl]carbamimidothioic acid, methyl ester] | 8 (≈ 20.3 µM) | 4 (≈ 10.2 µM) | 4 (≈ 10.2 µM) |

More lines, in order of falling MIC [1], values ahead:

| MIC [1] [µg/mL] | MIC [2] [µg/mL] | MIC [3] [µg/mL] | Structure (SMILES) |
| --- | --- | --- | --- |
| 64 (≈ 169 µM) | 32 (≈ 84.6 µM) | 16 (≈ 42.3 µM) | CC(=O)N=C(C)NC[C@H]1CN(c2ccc(N3CCOCC3)c(F)c2)C(=O)O1 [Cmpd 7, N-Acetyl-N'-[[(5S)-3-[3-fluoro-4-(4-morpholinyl)phenyl]-2-oxo-5-oxazolidinyl]methyl]acetimidate] |
| 64 (≈ 164 µM) | 16 (≈ 41 µM) | 32 (≈ 82 µM) | CN(C)C(=NC#N)NC[C@H]1CN(c2ccc(N3CCOCC3)c(F)c2)C(=O)O1 [Cmpd 4, N-Cyano-N'-[[(5S)-3-[3-fluoro-4-(4-morpholinyl)phenyl]-2-oxo-5-oxazolidinyl]methyl]-N", N"-dimethylguanidine] |
| 32 (≈ 85 µM) | 16 (≈ 42.5 µM) | 32 (≈ 85 µM) | CN=C(NC#N)NC[C@H]1CN(c2ccc(N3CCOCC3)c(F)c2)C(=O)O1 [Cmpd 1, N-Cyano-N'-[[(5S)-3-[3-fluoro-4-(4-morpholinyl)phenyl]-2-oxo-5-oxazolidinyl]methyl]-N"-methylguanidine] |
| 8 (≈ 20.5 µM) | 8 (≈ 20.5 µM) | 8 (≈ 20.5 µM) | CCCC(=NC#N)NC[C@H]1CN(c2ccc(N3CCOCC3)c(F)c2)C(=O)O1 [Cmpd 5, N-Cyano-N'-[[(5S)-3-[3-fluoro-4-(4-morpholinyl)phenyl]-2-oxo-5-oxazolidinyl]methyl]butyrimidate] |
